Results taken from the supplement of paper PMC10331698.
± gives the standard deviation of the averaged measurements.

Legend:
Assay in all cases: level (log10 ratio to DMSO vehicle control); higher = higher biomarker level / cell amount than vehicle control
Settings in all cases: in DMSO
[1] = compound: FC(F)(F)C(F)(F)C(F)(F)C(F)(F)C(F)(F)C(F)(F)C(F)(F)C(F)(F)CCS [2-(Perfluorooctyl)ethanthiol]
Procedure: (§1)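 BioMAP Diversity Plus panel of 12 human primary cell co-culture systems (3C, 4H, LPS, SAg, BT, BF4T, BE3C, CASM3C, HDF3CGF, KF3CT, MyoF, Mphg). Compounds were added 1 h before stimulation and left for 24 h (MyoF 48 h; BT 72 h for soluble read-outs or 6 d for IgG). Biomarkers were read by ELISA, cytotoxicity by SRB, PBMC viability and proliferation by Alamar Blue. Each well value was divided by the mean of 8 DMSO control wells on the same plate and log10 transformed; duplicate blinded samples were tested at 4 concentrations.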

[2] = compound: FC(F)C(F)(F)COCC1CO1 [((2,2,3,3-Tetrafluoropropoxy)methyl)oxirane]
Procedure: as §1

Heptafluorobutyramide = compound: NC(=O)C(F)(F)C(F)(F)C(F)(F)F [Heptafluorobutyramide]
Procedure: as §1

Perfluoropentanoic acid = compound: O=C(O)C(F)(F)C(F)(F)C(F)(F)C(F)(F)F [Perfluoropentanoic acid]
Procedure: as §1

[3] = compound: O=C(O)C(F)(F)C(F)(F)OC(F)(F)F [Perfluoro-3-methoxypropanoic acid]
Procedure: as §1

[4] = compound: O=C(O)C(F)(F)OC(F)(F)C(F)(F)OC(F)(F)C(=O)O [Perfluoro-3,6-dioxaoctane-1,8-dioic acid]
Procedure: as §1

[5] = compound: O=C(O)C(F)(F)OC(F)(F)C(F)(F)OC(F)(F)F [Perfluoro-3,6-dioxaheptanoic acid]
Procedure: as §1

Test System	level (log10) ([1]; 6700 nM)	level (log10) ([1]; 20000 nM)	level (log10) ([2]; 6700 nM)	level (log10) ([2]; 20000 nM)	level (log10) ([2]; 60000 nM)	level (log10) (Heptafluorobutyramide; 6700 nM)	level (log10) (Heptafluorobutyramide; 20000 nM)	level (log10) (Heptafluorobutyramide; 60000 nM)	level (log10) (Perfluoropentanoic acid; 6700 nM)	level (log10) (Perfluoropentanoic acid; 20000 nM)	level (log10) (Perfluoropentanoic acid; 60000 nM)	level (log10) ([3]; 6700 nM)	level (log10) ([3]; 20000 nM)	level (log10) ([3]; 60000 nM)	level (log10) ([4]; 6700 nM)	level (log10) ([4]; 20000 nM)	level (log10) ([4]; 60000 nM)	level (log10) ([5]; 6700 nM)	level (log10) ([5]; 20000 nM)	level (log10) ([5]; 60000 nM)
BE3C:CD54/ICAM-1	-0.0055 ± 0.028	-0.0055 ± 0.015	0.011 ± 0.011	-0.0035 ± 0.0092	0.011 ± 0.027	-0.0195 ± 0.019	0.002 ± 0.0014	0.0035 ± 0.015	-0.006 ± 0.0085	-0.0095 ± 0.00071	0.0055 ± 0.039	0.003 ± 0.013	-0.0035 ± 0.0021	0.0065 ± 0.011	-0.003 ± 0.021	-0.0035 ± 0.0092	0.002 ± 0.038	-0.032 ± 0.0042	-0.0125 ± 0.0021	-0.0325 ± 0.015
BE3C:CD87/uPAR	0.009 ± 0.014	0.027 ± 0.0042	-0.016 ± 0.018	-0.017 ± 0.028	-0.0135 ± 0.022	0.043 ± 0.04	0.0155 ± 0.016	-0.019 ± 0.017	-0.0035 ± 0.063	-0.0235 ± 0.026	0.024 ± 0.0014	-0.0225 ± 0.0092	-0.012 ± 0.013	0.002 ± 0.041	-0.0105 ± 0.005	-0.0215 ± 0.012	0.008 ± 0.03	0.0055 ± 0.021	0.0075 ± 0.0021	-0.0045 ± 0.015
BE3C:CXCL8/IL-8	0.04 ± 0.073	0.0135 ± 0.093	0.0015 ± 0.00071	-0.005 ± 0.025	-0.009 ± 0.021	0.038 ± 0.0014	0.0365 ± 0.012	0.038 ± 0.051	-0.023 ± 0.0042	-0.036 ± 0.017	-0.0085 ± 0.057	-0.0445 ± 0.0064	-0.031 ± 0.0028	-0.007 ± 0.03	-0.0485 ± 0.0092	-0.0355 ± 0.0078	0.007 ± 0.05	-0.041 ± 0.033	-0.007 ± 0.011	-0.0155 ± 0.05
BE3C:CXCL9/MIG	-0.0085 ± 0.011	-0.001 ± 0.011	0 ± 0.0042	-0.0115 ± 0.0092	0.003 ± 0.02	0.002 ± 0.0014	0.0015 ± 0.0092	-0.006 ± 0.0028	-0.0035 ± 0.0092	-0.012 ± 0.013	0.007 ± 0.018	0.005 ± 0.0014	0.0095 ± 0.018	0.0105 ± 0.0021	0.0015 ± 0.0064	-0.003 ± 0.0099	0.0015 ± 0.0021	-0.016 ± 0.0014	-0.003 ± 0.021	0.0025 ± 0.0035
BE3C:CXCL10/IP-10	0.0405 ± 0.05	0.016 ± 0.058	-0.007 ± 0.011	-0.0125 ± 0.016	0.002 ± 0.0099	-0.0025 ± 0.00071	-0.0175 ± 0.012	0.0075 ± 0.018	-0.0085 ± 0.016	-0.013 ± 0.021	0.0005 ± 0.005	0.0025 ± 0.005	-0.0095 ± 0.0035	0.0025 ± 0.011	-0.003 ± 0.0057	0 ± 0.0014	0.005 ± 0.013	-0.03 ± 0.016	-0.0115 ± 0.018	-0.0095 ± 0.0078
BE3C:CXCL11/I-TAC	0.0035 ± 0.037	0.0175 ± 0.035	0.0005 ± 0.054	-0.008 ± 0.033	0.0225 ± 0.037	-0.0035 ± 0.0064	0.005 ± 0.0042	-0.0015 ± 0.00071	-0.0175 ± 0.012	-0.015 ± 0.0028	-0.005 ± 0.014	-0.0125 ± 0.0035	-0.0115 ± 0.0092	0.0045 ± 0.00071	-0.0145 ± 0.0021	-0.015 ± 0.0042	-0.006 ± 0.013	0.011 ± 0.023	0.008 ± 0.0014	0.012 ± 0.02
BE3C:EGFR	0.025 ± 0.013	0.0035 ± 0.03	0.002 ± 0.0071	-0.021 ± 0.021	-0.0145 ± 0.012	-0.008 ± 0.0028	-0.017 ± 0.011	0.004 ± 0.021	-0.0025 ± 0.021	-0.011 ± 0.0057	0.004 ± 0.018	-0.0075 ± 0.05	0.0065 ± 0.018	0.0335 ± 0.04	0.0115 ± 0.015	0.005 ± 0.021	0.0195 ± 0.077	-0.0185 ± 0.012	0.003 ± 0.021	0.007 ± 0.02
BE3C:HLA-DR	-0.0075 ± 0.0035	-0.0135 ± 0.0092	0.001 ± 0.0099	-0.0055 ± 0.0035	-0.07 ± 0.14	-0.0065 ± 0.005	0.0245 ± 0.012	-0.009 ± 0.0099	-0.0095 ± 0.018	0 ± 0.011	0.016 ± 0.033	-0.014 ± 0.0014	0.003 ± 0.023	-0.0035 ± 0.033	-0.0025 ± 0.00071	-0.02 ± 0.013	0.0085 ± 0.025	-0.0205 ± 0.054	-0.01 ± 0.035	-0.0225 ± 0.056
BE3C:IL-1alpha	-0.038 ± 0.0014	-0.017 ± 0.016	0.0015 ± 0.029	-0.0015 ± 0.0078	-0.008 ± 0.014	-0.0085 ± 0.052	0.027 ± 0.037	-0.004 ± 0.076	0.005 ± 0.02	0 ± 0.0028	0.0155 ± 0.029	0.0105 ± 0.015	0.0235 ± 0.005	0.0355 ± 0.026	0.0105 ± 0.0092	0.013 ± 0.0099	0.0235 ± 0.063	-0.035 ± 0.04	-0.0345 ± 0.032	-0.0385 ± 0.046
BF4T:CCL2/MCP-1	-0.0265 ± 0.029	-0.031 ± 0.03	-0.0155 ± 0.019	-0.0095 ± 0.013	0.011 ± 0.044	0.008 ± 0.058	-0.011 ± 0.04	0.014 ± 0.047	0.004 ± 0.047	-0.0035 ± 0.052	-0.0275 ± 0.025	0.0075 ± 0.026	0.0115 ± 0.043	0.0535 ± 0.054	0.018 ± 0.027	0.0135 ± 0.053	0.0265 ± 0.043	-0.0235 ± 0.0021	0.002 ± 0.0071	-0.0255 ± 0.023
BF4T:CCL26/Eotaxin-3	-0.0585 ± 0.04	-0.037 ± 0.0099	0.005 ± 0.033	0.0055 ± 0.052	0.031 ± 0.05	0.0165 ± 0.022	-0.0035 ± 0.0021	0.0045 ± 0.012	-0.0155 ± 0.029	-0.0165 ± 0.0092	0.018 ± 0.05	-0.033 ± 0.0085	-0.031 ± 0.016	0.02 ± 0.057	-0.048 ± 0.059	-0.037 ± 0.033	0.0145 ± 0.11	-0.039 ± 0.048	-0.0195 ± 0.021	-0.0615 ± 0.1
BF4T:CD54/ICAM-1	0.0025 ± 0.005	-0.003 ± 0.0014	-0.005 ± 0.0099	-0.0065 ± 0.0064	-0.002 ± 0.0057	-0.0065 ± 0.011	-0.013 ± 0.0042	0.0015 ± 0.015	-0.0155 ± 0.0021	-0.0135 ± 0.005	0.0015 ± 0.043	0.0165 ± 0.0064	-0.0085 ± 0.011	-0.0015 ± 0.0035	-0.0025 ± 0.018	-0.007 ± 0.0057	0.012 ± 0.027	0.0115 ± 0.005	-0.009 ± 0.0028	-0.012 ± 0.0071
BF4T:CD90	-0.003 ± 0.0028	-0.0065 ± 0.005	-0.006 ± 0.03	0.004 ± 0.0057	0.014 ± 0.016	0.002 ± 0.013	-0.008 ± 0.0085	0.003 ± 0.0042	-0.02 ± 0.0085	-0.0105 ± 0.005	-0.0025 ± 0.025	-0.012 ± 0.021	-0.0165 ± 0.013	-0.0095 ± 0.0035	-0.012 ± 0.0028	-0.0085 ± 0.005	-0.004 ± 0.0028	-0.012 ± 0.0042	0.001 ± 0.0099	-0.011 ± 0.0014
